# Assay results taken from PubChem BioAssay AID330 (DTP/NCI, 2004).
# Values joined by “and” are separate entries in the source; they are usually repeats but may differ in a detail not shown here. Equal entries are not always repeated. Toxic doses and inconclusive results are not listed.
# Test system: P388 leukemia ip, CD2F1 mice, survival T/C
# Assay: NCI In Vivo Anticancer Drug Screen. Data for tumor model P388 Leukemia (intraperitoneal) in CD2F1 (CDF1) mice
# Settings: endpoint: median survival time, higher = longer survival
# In short: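 Mice carrying the transplanted tumor received test compound or vehicle. Survival was recorded in each group, and the value is the treated-group measurement divided by that of the vehicle-treated control group.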
structure (smiles),measurement,setting,value
CCCC1SCC(=O)N1c1nncs1 (stereo not drawn),T/C,"dose: 30.0 mg/kg/injection, schedule: Q01DX005 (ip), vehicle: Klucel (hydroxypropylcellulose) (HPC)",94 % of control
same,T/C,"dose: 60.0 mg/kg/injection, schedule: Q01DX005 (ip), vehicle: Klucel (hydroxypropylcellulose) (HPC)",104 % of control and 111 % of control
same,T/C,"dose: 100.0 mg/kg/injection, schedule: Q01DX001 (ip), vehicle: Klucel (hydroxypropylcellulose) (HPC)",96 % of control
same,T/C,"dose: 120.0 mg/kg/injection, schedule: Q01DX005 (ip), vehicle: Klucel (hydroxypropylcellulose) (HPC)",120 % of control
same,T/C,"dose: 200.0 mg/kg/injection, schedule: Q01DX001 (ip), vehicle: Klucel (hydroxypropylcellulose) (HPC)",103 % of control
same,T/C,"dose: 240.0 mg/kg/injection, schedule: Q01DX005 (ip), vehicle: Klucel (hydroxypropylcellulose) (HPC)",166 % of control
O=C(O)C1C2OC(C(Cl)C2Cl)C1C(=O)O (stereo not drawn),T/C,"dose: 15.0 mg/kg/injection, schedule: Q01DX005 (ip), vehicle: saline",97 % of control
same,T/C,"dose: 30.0 mg/kg/injection, schedule: Q01DX005 (ip), vehicle: saline",94 % of control
same,T/C,"dose: 60.0 mg/kg/injection, schedule: Q01DX005 (ip), vehicle: saline",95 % of control
same,T/C,"dose: 120.0 mg/kg/injection, schedule: Q01DX005 (ip), vehicle: saline",87 % of control
COc1ccc2ncc(C)c(COC(C)=O)c2c1,T/C,"dose: 100.0 mg/kg/injection, schedule: Q04DX002 (ip), vehicle: saline with Tween-80",102 % of control
same,T/C,"dose: 200.0 mg/kg/injection, schedule: Q04DX002 (ip), vehicle: saline with Tween-80",93 % of control
same,T/C,"dose: 400.0 mg/kg/injection, schedule: Q04DX002 (ip), vehicle: saline with Tween-80",97 % of control
